Test results: patent US8664277B2, “Compounds and methods for PKCθ inhibition” (Complegen Partners, LLC, priority 2008, dated 2014)

Assays:
Assay type in all cases: cell-based
PKC delta = biological target: T1, PKC delta (Homo sapiens, UniProt Q05655); experiment: XenoGene counter-screen, PKC delta; conditions: inverse of (PKC-theta IC50)/(PKC-X IC50)
T1 construct: expressed in transfected cells; host or cells: yeast (XenoGene strain)
Experimental: (§1) To identify compounds as being selective PKC theta inhibitors the IC50 values are determined against XenoGene™ strains containing other XenoGenes™, especially certain other PKC genes (see Example 10).
(§2) Human PKC theta gene (cDNA) was used to generate a XenoGene™ system as previously described (U.S. Pat. Nos. 6,998,261, 6,232,074), which was used to screen compounds in a chemical compound library. XenoGene™ systems used as counter-screens were constructed similarly using the gene for the appropriate counter-screen target. In particular, human genes (cDNA) encoding PKC delta, PKC eta and PKC epsilon were used to generate XenoGene™ systems.

PKC epsilon = biological target: T2, PKC epsilon (Homo sapiens, UniProt Q02156); experiment: XenoGene counter-screen, PKC epsilon; conditions: inverse of (PKC-theta IC50)/(PKC-X IC50)
T2 construct: expressed in transfected cells; host or cells: yeast (XenoGene strain)
T2 sequence (Q02156 1-737): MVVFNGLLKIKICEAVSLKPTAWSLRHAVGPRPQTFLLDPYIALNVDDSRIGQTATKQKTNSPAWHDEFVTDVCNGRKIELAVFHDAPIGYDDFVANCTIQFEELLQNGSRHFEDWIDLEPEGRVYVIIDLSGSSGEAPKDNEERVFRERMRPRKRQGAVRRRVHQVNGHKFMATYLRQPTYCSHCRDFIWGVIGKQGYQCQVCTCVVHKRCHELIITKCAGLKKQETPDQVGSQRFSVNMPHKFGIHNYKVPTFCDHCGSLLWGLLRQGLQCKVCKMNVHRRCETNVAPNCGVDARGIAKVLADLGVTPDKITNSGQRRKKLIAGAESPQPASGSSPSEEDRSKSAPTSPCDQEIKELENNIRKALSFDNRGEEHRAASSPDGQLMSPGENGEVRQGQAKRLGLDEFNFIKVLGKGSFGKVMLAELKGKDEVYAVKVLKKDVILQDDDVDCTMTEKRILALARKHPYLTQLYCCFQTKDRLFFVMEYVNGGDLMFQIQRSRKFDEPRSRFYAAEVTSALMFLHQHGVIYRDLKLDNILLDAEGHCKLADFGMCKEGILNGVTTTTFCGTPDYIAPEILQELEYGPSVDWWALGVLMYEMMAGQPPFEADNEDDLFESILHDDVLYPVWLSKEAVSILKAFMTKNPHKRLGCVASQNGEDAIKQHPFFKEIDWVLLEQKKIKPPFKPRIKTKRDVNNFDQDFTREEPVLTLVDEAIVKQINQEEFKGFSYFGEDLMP
Experimental: as §1, §2

PKC eta = biological target: T3, PKC eta (Homo sapiens, UniProt P24723); experiment: XenoGene counter-screen, PKC eta; conditions: inverse of (PKC-theta IC50)/(PKC-X IC50)
T3 construct: expressed in transfected cells; host or cells: yeast (XenoGene strain)
T3 sequence (P24723 whole entry): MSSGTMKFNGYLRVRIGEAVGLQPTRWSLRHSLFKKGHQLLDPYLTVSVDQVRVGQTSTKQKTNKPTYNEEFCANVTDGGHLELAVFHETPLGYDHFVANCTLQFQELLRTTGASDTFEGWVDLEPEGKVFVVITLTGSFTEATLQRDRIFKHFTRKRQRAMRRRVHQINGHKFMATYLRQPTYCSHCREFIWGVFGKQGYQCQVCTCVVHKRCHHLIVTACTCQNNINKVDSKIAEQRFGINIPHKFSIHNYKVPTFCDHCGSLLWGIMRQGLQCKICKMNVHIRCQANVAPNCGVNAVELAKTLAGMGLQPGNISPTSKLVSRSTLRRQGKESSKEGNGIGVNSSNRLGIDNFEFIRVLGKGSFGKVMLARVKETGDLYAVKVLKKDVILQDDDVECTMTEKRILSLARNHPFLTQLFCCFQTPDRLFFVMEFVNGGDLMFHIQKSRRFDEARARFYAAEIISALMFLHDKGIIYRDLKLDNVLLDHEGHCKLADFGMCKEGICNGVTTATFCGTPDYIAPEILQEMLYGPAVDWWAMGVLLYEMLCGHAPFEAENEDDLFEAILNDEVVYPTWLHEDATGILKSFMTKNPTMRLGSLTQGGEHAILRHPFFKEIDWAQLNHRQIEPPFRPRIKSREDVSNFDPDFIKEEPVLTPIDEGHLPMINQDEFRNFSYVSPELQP
Experimental: as §1, §2

B-cell hybridoma = B-cell hybridoma non-T cell control, live cells counted by flow cytometry
Experimental: Mice generated from the nucleus of a mature T cell (see Hochedlinger K, Jaenisch R. (2002) Nature 415; 1035) with a “fixed” rearranged T cell receptor spontaneously generate T cell lymphomas which resemble human T cell lymphomas. Several T cell lymphomas (1-4) isolated from these mice were treated with compound 471. All T cell lymphomas were inhibited by compound 471. A B-cell hybridoma served as a non-T cell control and was not affected by the compound. Cells were seeded into 96-well plates (5,000 cells/well) in the presence of compound 471 at concentrations ranging from 0.1 to 5 uM. After 4 days growth (37° C., 5% CO2), live cells were counted by flow cytometry (Serwold et al. (2007) J. Immunol. 179; 928)

T1 sequence (Q05655 whole entry): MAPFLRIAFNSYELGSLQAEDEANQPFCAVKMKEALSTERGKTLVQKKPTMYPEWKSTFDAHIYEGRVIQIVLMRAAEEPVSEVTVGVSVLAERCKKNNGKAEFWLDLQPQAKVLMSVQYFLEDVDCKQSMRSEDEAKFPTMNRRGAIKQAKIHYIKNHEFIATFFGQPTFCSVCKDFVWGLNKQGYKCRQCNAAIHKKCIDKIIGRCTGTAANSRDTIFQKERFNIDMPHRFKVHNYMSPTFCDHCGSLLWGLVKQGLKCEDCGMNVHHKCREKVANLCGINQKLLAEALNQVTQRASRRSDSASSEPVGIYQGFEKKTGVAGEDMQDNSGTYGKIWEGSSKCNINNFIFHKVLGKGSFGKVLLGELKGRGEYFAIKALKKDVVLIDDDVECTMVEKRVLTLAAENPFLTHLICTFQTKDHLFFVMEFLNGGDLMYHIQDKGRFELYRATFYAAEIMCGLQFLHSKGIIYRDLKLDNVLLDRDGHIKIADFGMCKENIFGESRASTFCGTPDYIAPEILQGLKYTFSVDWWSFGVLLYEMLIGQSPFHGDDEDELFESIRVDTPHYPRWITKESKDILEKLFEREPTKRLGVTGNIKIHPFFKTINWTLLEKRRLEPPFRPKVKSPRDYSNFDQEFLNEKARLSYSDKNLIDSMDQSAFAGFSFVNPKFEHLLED

SMILES: CC(C)(C)c1ccc(Oc2ccc(N)cc2)cc1 [Compound 471]
- Selectivity for PKC-theta v. PKC-delta (PKC delta): 2.5
- Selectivity for PKC-theta v. PKC-epsilon (PKC epsilon): 1.1
- Selectivity for PKC-theta v. PKC-eta (PKC eta): 0.36
- EC50 (B-cell hybridoma; 96 h, B-cell Hybridoma, 4 days growth): > 5 µM
- Effect on B-cell hybridoma (B-cell hybridoma; non-T cell control, 0.1 to 5 uM): not affected
